Patent publication US20250368666A1, “INDAZOLE COMPOUNDS” (TYRA BIOSCIENCES, INC., priority 2022, published 2025)
pIC50: −log10 of the molar value. Read-outs that look alike come from different tables or passages of the source.

Experiments:
FGFR1 = target: T1, FGFR1 (Homo sapiens, UniProt P11362); assay: Kinase binding assay (kinase-tagged T7 phage, affinity beads, qPCR), Kd; settings: read-out: FGFR1 (Kd nM)
T1 construct: made in house; host or cells: E. coli (BL21-derived), T7 phage
Summary of the method: (§1)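 Phage-tagged kinase capture on small-molecule affinity resin, compound competition, qPCR quantitation; Kd from Levenberg-Marquardt Hill fit.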

FGFR2 = target: T2, FGFR2 (Homo sapiens, UniProt P21802); assay: as above; settings: read-out: FGFR2 (Kd nM)
T2 construct: made in house; host or cells: E. coli (BL21-derived), T7 phage
Summary of the method: as §1

FGFR3 = target: T3, FGFR3 (Homo sapiens, UniProt P22607); assay: as above; settings: read-out: FGFR3 (Kd nM)
T3 construct: made in house; host or cells: E. coli (BL21-derived), T7 phage
Summary of the method: as §1

FGFR3 (V555M) = target: T4, FGFR3 (V555M) (Homo sapiens, UniProt P22607, V555M); assay: as above; settings: V555M mutant; read-out: FGFR3 (V555M) (Kd nM)
T4 construct: made in house; host or cells: E. coli (BL21-derived), T7 phage
Summary of the method: as §1

FGFR4 = target: T5, FGFR4 (Homo sapiens, UniProt P22455); assay: as above; settings: read-out: FGFR4 (Kd nM)
T5 construct: made in house; host or cells: E. coli (BL21-derived), T7 phage
Summary of the method: as §1

[1] = tested on: HuH7 cell line (FGF19 amplification); assay: Cancer cell line cell viability assay (Cell Titer-Glo), 120 hr; assay type: cell-based; settings: Homo sapiens, Huh-7
Source text: Experimental Purpose: To detect the change of intracellular ATP by Cell Titer-Glo® and to evaluate the inhibitory effect of the compounds on cancer cell lines by determining the in vitro IC50 value of the compounds.
Cell Titer-Glo® 2.0 Luminescent cell viability assay reagent was purchased from Promega (Madison, WI). KG-1, KATO-III, and MDA-MB-453 cell lines were purchased from American Type Culture Collection (Manassas, VA). RT112/84 cell line was purchased from Millipore-Sigma (St. Louis, MO). HuH7 cells were purchased from Seikisui Xenotech (Kansas City, KS). RT112/84 and MDA-MB-453 cells were cultured in RPMI1640 media supplemented with 10% fetal bovine serum. KG-1 and KATO-III cell lines were cultured in IMDM media supplemented with 20% FBS. HuH7 cells were cultured in IMDM media supplemented with 10% FBS. Cultures were maintained at 37° C. in a humidified atmosphere of 5% CO2 and 95% air.
Cell Viability Assay Procedure: Cells were plated in 96-well clear bottom/white plates (Corning #3903) at a range of densities depending on the optimal assay window (5,000-20,000 cells/well in […] of media), incubated overnight. The next day, test compound DMSO stock solutions were made at 10 mM and […] final concentration. Compounds were then added to cells in a 9-dose, 4-fold dilution series starting at 3 μM with an HP 300e Digital Dispenser (each dose was applied in triplicate). DMSO was backfilled to each well up to 301 nL total volume of test compound+DMSO, and a total of 301 nL DMSO was added to a control/no test compound well in triplicate. The cells in cell culture plates were incubated with the compounds at 37° C. and 5% CO2 for 72 hours-120 hours depending on the cell line. Then 50 μl of Cell Titer Glo 2.0 reagent was added to each well of the cell culture plates. The contents were covered from light and mixed on an orbital shaker at room temperature for minimum of 10 min. Luminescence was recorded by a Clariostar Plus Microplate Reader (BMG Labtech, Cary, NC). Cells were assessed as a percentage of DMSO only treated control cells. Curves were plotted and IC50 values were calculated using the GraphPad Prism 9 program based on a sigmoidal dose-response equation (log (inhibitor) vs. response—Variable slope, 4-parameter).

[2] = kinase binding assay, 11-point 3-fold dilution series

T5 sequence (P22455 22-802): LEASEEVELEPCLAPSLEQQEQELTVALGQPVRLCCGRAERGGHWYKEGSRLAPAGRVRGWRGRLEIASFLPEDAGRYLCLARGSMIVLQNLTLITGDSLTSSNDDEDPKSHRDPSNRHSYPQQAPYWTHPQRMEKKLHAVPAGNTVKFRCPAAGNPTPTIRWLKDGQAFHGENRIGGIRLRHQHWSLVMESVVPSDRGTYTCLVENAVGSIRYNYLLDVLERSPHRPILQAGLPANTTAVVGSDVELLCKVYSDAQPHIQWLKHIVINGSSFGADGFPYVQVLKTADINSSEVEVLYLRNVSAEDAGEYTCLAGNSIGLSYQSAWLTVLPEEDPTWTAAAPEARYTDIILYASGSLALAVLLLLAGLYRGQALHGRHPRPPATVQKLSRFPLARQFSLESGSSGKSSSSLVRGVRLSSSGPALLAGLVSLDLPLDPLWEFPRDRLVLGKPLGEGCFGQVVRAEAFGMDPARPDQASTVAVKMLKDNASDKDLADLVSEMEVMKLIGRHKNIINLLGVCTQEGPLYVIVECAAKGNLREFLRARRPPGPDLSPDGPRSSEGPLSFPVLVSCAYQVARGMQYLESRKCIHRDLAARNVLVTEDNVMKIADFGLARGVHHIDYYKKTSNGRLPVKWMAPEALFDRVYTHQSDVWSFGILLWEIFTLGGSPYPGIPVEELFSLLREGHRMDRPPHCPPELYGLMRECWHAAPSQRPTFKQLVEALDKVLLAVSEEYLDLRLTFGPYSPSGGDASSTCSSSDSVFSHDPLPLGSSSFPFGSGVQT
T1 sequence (P11362 22-822): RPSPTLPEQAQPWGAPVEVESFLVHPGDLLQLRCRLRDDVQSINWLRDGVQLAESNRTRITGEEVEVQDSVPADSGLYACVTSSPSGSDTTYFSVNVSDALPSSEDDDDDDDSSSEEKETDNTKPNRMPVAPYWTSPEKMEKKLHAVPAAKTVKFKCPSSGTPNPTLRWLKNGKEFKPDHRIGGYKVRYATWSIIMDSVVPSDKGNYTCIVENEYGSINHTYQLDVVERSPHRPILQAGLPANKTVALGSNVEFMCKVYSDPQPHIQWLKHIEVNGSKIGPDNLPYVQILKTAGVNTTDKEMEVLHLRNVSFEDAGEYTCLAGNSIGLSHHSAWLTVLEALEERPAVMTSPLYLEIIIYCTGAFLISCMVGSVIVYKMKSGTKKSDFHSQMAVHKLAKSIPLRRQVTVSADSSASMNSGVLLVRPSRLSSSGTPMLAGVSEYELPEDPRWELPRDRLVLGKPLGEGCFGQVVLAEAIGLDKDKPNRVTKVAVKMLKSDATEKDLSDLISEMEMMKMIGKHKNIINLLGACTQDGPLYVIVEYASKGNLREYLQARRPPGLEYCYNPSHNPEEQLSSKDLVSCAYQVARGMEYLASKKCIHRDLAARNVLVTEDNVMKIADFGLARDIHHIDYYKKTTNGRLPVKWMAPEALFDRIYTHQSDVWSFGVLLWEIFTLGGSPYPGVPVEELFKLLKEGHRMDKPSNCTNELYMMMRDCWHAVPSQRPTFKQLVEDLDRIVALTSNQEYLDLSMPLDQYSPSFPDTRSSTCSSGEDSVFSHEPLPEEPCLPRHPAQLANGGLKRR
T3 sequence (P22607 23-806): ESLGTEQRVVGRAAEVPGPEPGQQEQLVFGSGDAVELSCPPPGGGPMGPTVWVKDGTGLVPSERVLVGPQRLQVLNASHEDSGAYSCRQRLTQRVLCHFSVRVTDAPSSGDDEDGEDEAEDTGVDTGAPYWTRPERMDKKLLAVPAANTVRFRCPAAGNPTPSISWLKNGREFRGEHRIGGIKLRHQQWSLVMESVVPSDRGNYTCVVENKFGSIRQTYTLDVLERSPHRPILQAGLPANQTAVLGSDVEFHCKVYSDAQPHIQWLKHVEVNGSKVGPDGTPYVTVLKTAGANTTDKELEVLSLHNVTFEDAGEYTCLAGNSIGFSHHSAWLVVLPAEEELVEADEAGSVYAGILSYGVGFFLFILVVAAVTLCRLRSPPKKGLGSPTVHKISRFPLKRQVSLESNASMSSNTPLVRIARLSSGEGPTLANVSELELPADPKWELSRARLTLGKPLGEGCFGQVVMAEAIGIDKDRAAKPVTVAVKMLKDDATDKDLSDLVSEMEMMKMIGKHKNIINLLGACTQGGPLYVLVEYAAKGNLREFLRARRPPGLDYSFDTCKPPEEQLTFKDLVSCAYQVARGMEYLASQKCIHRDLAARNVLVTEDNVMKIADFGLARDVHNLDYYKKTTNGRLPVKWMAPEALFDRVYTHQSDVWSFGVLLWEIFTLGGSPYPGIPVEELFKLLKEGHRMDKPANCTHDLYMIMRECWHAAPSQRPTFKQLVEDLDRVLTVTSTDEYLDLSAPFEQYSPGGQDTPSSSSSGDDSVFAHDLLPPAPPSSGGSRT
T2 sequence (P21802 22-821): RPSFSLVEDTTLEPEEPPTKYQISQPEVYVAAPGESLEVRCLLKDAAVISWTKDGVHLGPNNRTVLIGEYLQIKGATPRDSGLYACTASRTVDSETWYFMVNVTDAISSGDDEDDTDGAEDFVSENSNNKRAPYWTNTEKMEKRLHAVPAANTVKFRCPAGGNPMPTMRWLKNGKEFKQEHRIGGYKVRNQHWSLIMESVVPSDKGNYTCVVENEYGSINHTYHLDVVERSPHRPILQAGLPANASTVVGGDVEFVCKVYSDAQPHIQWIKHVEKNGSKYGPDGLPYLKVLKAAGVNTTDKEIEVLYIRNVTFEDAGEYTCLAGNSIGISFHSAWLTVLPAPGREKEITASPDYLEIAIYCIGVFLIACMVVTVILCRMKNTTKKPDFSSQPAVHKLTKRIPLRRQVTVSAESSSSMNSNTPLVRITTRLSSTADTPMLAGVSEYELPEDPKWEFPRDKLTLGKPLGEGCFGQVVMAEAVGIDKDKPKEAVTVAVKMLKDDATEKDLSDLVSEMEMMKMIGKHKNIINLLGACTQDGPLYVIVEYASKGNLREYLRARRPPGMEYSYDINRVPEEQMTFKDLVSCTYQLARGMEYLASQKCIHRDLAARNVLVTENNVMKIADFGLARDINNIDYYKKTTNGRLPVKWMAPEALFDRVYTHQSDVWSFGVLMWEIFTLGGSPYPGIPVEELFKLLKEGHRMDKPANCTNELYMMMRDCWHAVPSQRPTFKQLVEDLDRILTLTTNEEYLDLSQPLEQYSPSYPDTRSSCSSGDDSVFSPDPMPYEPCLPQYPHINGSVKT
T4 sequence (P22607 23-806 V555M): as the sequence (P22607 23-806) above, with V533M counted along it

SMILES	Kd (FGFR1)	Kd (FGFR2)	Kd (FGFR3)	Kd (FGFR3 (V555M))	Kd (FGFR4)	pIC50 [1]	Kd (FGFR1; [2])	Kd (FGFR2; [2])	Kd (FGFR3; [2])	Kd (FGFR4; [2])
COc1cc2[nH]nc(-c3cnc(N4CC(C)(N(C)C)C4)c(S(C)(=O)=O)c3)c2cc1O[C@H](C)c1c(Cl)cncc1Cl [Example 1, (R)-1-(5-(5-(1-(3,5-dichloropyridin-4-yl)ethoxy)-6-methoxy-1H-indazol-3-y1)-3-(methylsulfonyl)pyridin-2-yl)-N,N,3-trimethylazetidin-3-amine]	1 to 50 nM	1 to 50 nM	1 to 50 nM	1 to 50 nM	1 to 50 nM	7.30 to 10.00				
COc1cc2[nH]nc(-c3cnc(N4CC(C)(NC5CCC5)C4)c(C#N)c3)c2cc1O[C@H](C)c1c(Cl)cncc1Cl [Example 12, (R)-2-(3-(cyclobutylamino)-3-methylazetidin-1-yl)-5-(5-(1-(3,5-dichloropyridin-4-yl)ethoxy)-6-methoxy-1H-indazol-3-yl)nicotinonitrile]	1 to 50 nM	1 to 50 nM	1 to 50 nM	1 to 50 nM	1 to 50 nM	7.30 to 10.00				
Cc1ncc(Cl)c([C@@H](C)Oc2ccc3[nH]nc(-c4cnc(N5CC(C)(OC(C)C)C5)c(C#N)c4)c3c2)c1Cl [Example 13, 5-[5-[(1R)-1-(3,5-dichloro-2-methyl-4-pyridyl)ethoxy]-1H-indazol-3-yl]-2-(3-isopropoxy-3-methyl-azetidin-1-yl)pyridine-3-carbonitrile]	> 1000 nM	> 1000 nM	50 to 300 nM	50 to 300 nM	1 to 50 nM	6.00 to 6.70				
Cc1ncc(Cl)c([C@@H](C)Oc2ccc3[nH]nc(-c4cnc(N5CC(C)(NC6COC6)C5)c(C#N)c4)c3c2)c1Cl [Example 30, 5-[5-[(1R)-1-(3,5-dichloro-2-methyl-4-pyridyl)ethoxy]-1H-indazol-3-yl]-2-[3-methyl-3-(oxetan-3-ylamino)azetidin-1-yl]pyridine-3-carbonitrile]	1 to 50 nM	1 to 50 nM	1 to 50 nM	1 to 50 nM	1 to 50 nM	7.30 to 10.00				
CCN(CC)C1(C)CN(c2ncc(-c3n[nH]c4ccc(O[C@H](C)c5c(Cl)cnc(C)c5Cl)cc34)cc2C#N)C1 [Example 36, 5-[5-[(1R)-1-(3,5-dichloro-2-methyl-4-pyridyl)ethoxy]-1H-indazol-3-yl]-2-[3-(diethylamino)-3-methyl-azetidin-1-yl]pyridine-3-carbonitrile]	50 to 300 nM	50 to 300 nM	1 to 50 nM	1 to 50 nM	1 to 50 nM	6.00 to 6.70				
Cc1ncc(Cl)c([C@@H](C)Oc2ccc3[nH]nc(-c4cnc(N5CC(C)(N6CCOCC6)C5)c(C#N)c4)c3c2)c1Cl [Example 38, 5-[5-[(1R)-1-(3,5-dichloro-2-methyl-4-pyridyl)ethoxy]-1H-indazol-3-yl]-2-(3-methyl-3-morpholino-azetidin-1-yl)pyridine-3-carbonitrile]	300 to 1000 nM	50 to 300 nM	1 to 50 nM	1 to 50 nM	1 to 50 nM	6.70 to 7.30				
Cc1ncc(Cl)c([C@@H](C)Oc2ccc3[nH]nc(-c4cnc(N5CC(C)(N(C)C)C5)c(C#N)c4)c3c2)c1Cl [Example 45, 5-[5-[(1R)-1-(3,5-dichloro-2-methyl-4-pyridyl)ethoxy]-1H-indazol-3-yl]-2-[3-(dimethylamino)-3-methyl-azetidin-1-yl]pyridine-3-carbonitrile]	50 to 300 nM	50 to 300 nM	1 to 50 nM	1 to 50 nM	1 to 50 nM	6.70 to 7.30				
Cc1ncc(Cl)c([C@@H](C)Oc2ccc3[nH]nc(-c4cnc(N5CC(C)(OC6CCC6)C5)c(C#N)c4)c3c2)c1Cl [Example 46, (R)-2-(3-Cyclobutoxy-3-methylazetidin-1-yl)-5-(5-(1-(3,5-dichloro-2-methyl-pyridin-4-yl)ethoxy)-1H-indazol-3-yl)nicotinonitrile]	> 1000 nM	> 1000 nM	300 to 1000 nM	50 to 300 nM	1 to 50 nM	< 6.00				
COc1cc2[nH]nc(-c3cnc(N4CC[C@](C)(NCC5CC5)C4)c(C#N)c3)c2cc1O[C@H](C)c1c(Cl)cncc1Cl [Example 410, 2-((S)-3-((cyclopropyl-methyl)-amino)-3-methylpyrrolidin-1-yl)-5-(5-((R)-1-(3,5-dichloropyridin-4-yl)ethoxy)-6-methoxy-1H-indazol-3-yl)nicotinonitrile]						7.30 to 10.00	1 to 50 nM	1 to 50 nM	1 to 50 nM	1 to 50 nM

More lines, now with the values ahead:

Kd (FGFR1)	Kd (FGFR2)	Kd (FGFR3)	Kd (FGFR3 (V555M))	Kd (FGFR4)	pIC50 [1]	Kd (FGFR1; [2])	Kd (FGFR2; [2])	Kd (FGFR3; [2])	Kd (FGFR4; [2])	SMILES
50 to 300 nM	1 to 50 nM	1 to 50 nM	1 to 50 nM	1 to 50 nM	7.30 to 10.00					C[C@@H](Oc1cc2c(-c3cnc(N4CC(C)(CP(C)(C)=O)C4)c(C#N)c3)n[nH]c2cc1F)c1c(Cl)cncc1Cl [Example 11, (R)-5-(5-(1-(3,5-dichloropyridin-4-yl)ethoxy)-6-fluoro-1H-indazol-3-yl)-2-(3-((dimethylphosphoryl)methyl)-3-methylazetidin-1-yl)nicotinonitrile]
50 to 300 nM	50 to 300 nM	1 to 50 nM	1 to 50 nM	1 to 50 nM	7.30 to 10.00					C[C@@H](Oc1ccc2[nH]nc(-c3cnc(N4CC(C)(CNS(C)(=O)=O)C4)c(C#N)c3)c2c1)c1c(Cl)cncc1Cl [Example 18, (R)-N-((1-(3-cyano-5-(5-(1-(3,5-dichloropyridin-4-yl)ethoxy)-1H-indazol-3-yl)pyridin-2-yl)-3-methylazetidin-3-yl)methyl)methane-sulfonamide]
50 to 300 nM	50 to 300 nM	1 to 50 nM	1 to 50 nM	1 to 50 nM	6.70 to 7.30					C[C@@H](Oc1ccc2[nH]nc(-c3cnc(N4CC(C)(N(C)C)C4)c(C#N)c3)c2c1)c1c(Cl)cncc1Cl [Example 29, (R)-5-(5-(1-(3,5-dichloropyridin-4-yl)ethoxy)-1H-indazol-3-yl)-2-(3-(dimethylamino)-3-methylazetidin-1-yl)nicotinonitrile]
1 to 50 nM	50 to 300 nM	1 to 50 nM	1 to 50 nM	1 to 50 nM	6.70 to 7.30					CCN(CC)C1(C)CN(c2ncc(-c3n[nH]c4ccc(O[C@H](C)c5c(Cl)cncc5Cl)cc34)cc2C#N)C1 [Example 31, 5-[5-[(1R)-1-(3,5-dichloro-4-pyridyl)ethoxy]-1H-indazol-3-yl]-2-[3-(diethylamino)-3-methyl-azetidin-1-yl]pyridine-3-carbonitrile]
1 to 50 nM	50 to 300 nM	1 to 50 nM	1 to 50 nM	1 to 50 nM	6.70 to 7.30					CNC1(C)CN(c2ncc(-c3n[nH]c4ccc(O[C@H](C)c5c(Cl)cnc(C)c5Cl)cc34)cc2C#N)C1 [Example 32, 5-[5-[(1R)-1-(3,5-dichloro-2-methyl-4-pyridyl)ethoxy]-1H-indazol-3-yl]-2-[3-methyl-3-(methylamino)azetidin-1-yl]pyridine-3-carbonitrile]
1 to 50 nM	1 to 50 nM	1 to 50 nM	1 to 50 nM	1 to 50 nM	7.30 to 10.00					CCNC1(C)CN(c2ncc(-c3n[nH]c4ccc(O[C@H](C)c5c(Cl)cncc5Cl)cc34)cc2C#N)C1 [Example 35, (R)-5-(5-(1-(3,5-dichloropyridin-4-yl)ethoxy)-1H-indazol-3-yl)-2-(3-(ethylamino)-3-methylazetidin-1-yl)nicotinonitrile]
50 to 300 nM	50 to 300 nM	1 to 50 nM	1 to 50 nM	1 to 50 nM	6.70 to 7.30					Cc1ncc(Cl)c([C@@H](C)Oc2ccc3[nH]nc(-c4cnc(N5CC(C)(N)C5)c(C#N)c4)c3c2)c1Cl [Example 39, 2-(3-amino-3-methyl-azetidin-1-yl)-5-[5-[(1R)-1-(3,5-dichloro-2-methyl-4-pyridyl)ethoxy]-1H-indazol-3-yl]pyridine-3-carbonitrile]
